Reference: publication PMC5764437, “Discovery of novel, orally bioavailable, antileishmanial compounds using phenotypic screening” (PLoS Neglected Tropical Diseases, 2017)
Values after ≈ are worked out from the molar mass of the structure shown. Read-outs that look alike come from different tables or passages of the source.

Columns and labels:
[1] = Solubility in aqueous buffer; format: physicochemical; conditions: pH 7.4, aqueous buffer, kinetic from dmso stock
Protocol: Solubility assays were carried out on a Biomek FX lab automation workstation (Beckman Coulter, Inc., Fullerton, CA) using μSOL Evolution software (pION Inc.). Compound stock (10 mM in DMSO, 10 μL) was added to 1-propanol (190 μL) to make a reference stock plate. Reference stock solution (5 μL) was mixed with 1-propanol (70 μL) and citrate phosphate buffered saline (pH 7, 75 μL) to make the reference plate which was then measured with UV detection. Test compound stock (10 mM, 6 μL) was added to citrate phosphate buffered saline (594 μL) in a 96-well storage plate and mixed. […] The suspension was then filtered through a 96-well filter plate (pION Inc.). Filtrate (75 μL) was mixed with 1-propanol (75 μL) to make the sample plate, and the UV spectrum (250 nm −500 nm) of the sample plate was recorded. Calculation of solubility was carried out using μSOL Evolution software based on the AUC of the UV spectrum of the sample plate and the reference plate. All compounds were tested in triplicate.

[2] = Parallel Artificial Membrane Permeability Assay (PAMPA); conditions: pH 7.4
Protocol: Parallel Artificial Membrane Permeability Assay (PAMPA) was conducted by Biomek FX lab automation workstation (Beckman Coulter, Inc.) and PAMPA evolution 96 command software (pION Inc.). A 3 µL aliquot of […] test compound stock in DMSO was mixed with 597 µL of isotonic citrate phosphate buffered saline to make diluted test compound. Diluted test compound (150 µL) was transferred to a UV plate (pION Inc.) and the UV spectrum was read as the reference plate. The membrane on a pre-loaded PAMPA sandwich (pION Inc.) was painted with 4 µL GIT lipid (pION Inc.). The acceptor chamber was then filled with 200 µL acceptor solution buffer, (pION Inc.), and the donor chamber was filled with 180 µL diluted test compound. The PAMPA sandwich was assembled, placed on the Gut-Box and stirred for 30 min. The Aqueous Boundary Layer was set to 40 µm for stirring. The UV spectrum (250-500 nm) of the donor and the acceptor solutions were recorded. The permeability coefficient was calculated using PAMPA Evolution 96 Command software (pION Inc.) based on the AUC of the reference plate, the donor plate and the acceptor plate. All compounds were tested in triplicate.

[3] = in vitro; conditions: pH 1
Protocol: Compound stocks were 10 mM in DMSO. The internal standard was 5 µM warfarin in methanol. […] 1 ml SGF was added to a 1.1 ml 96-well storage plate and mixed well with 10 µl compound stock. The plate was then incubated at 37 °C and shaken at 60 rpm. […] At each time point, 100 µl was removed to a 1 ml storage plate and 300 µl internal standard was added to quench the reaction. […] The compound was detected by SIR and quantification was based on peak area of test compound and the internal standard.

[4] = Liver microsomal stability, mouse; conditions: female, microsomes, pH 7.4
Protocol: (§1) One part of 10 mM DMSO compound stock was mixed with 4 parts of acetonitrile to make 2 mM diluted compound stock in DMSO and acetonitrile. 29.1 µL diluted compound stock was added to 2.3 mL liver microsomal solution and vortexed to make microsomal solution with compound. […] For the 0 h time point, 450 µL pre-cooled (4 °C) internal standard (10 µM warfarin in methanol) was added to the first three columns before the reaction was initiated. 1.25 ml of microsome assay solution A (Fisher Scientific, #NC9255727) was combined with 0.25 ml of solution B (Fisher Scientific, #NC9016235) in 3.5 ml of potassium phosphate buffer (0.1 M, pH 7.4). 45 µL of this A+B solution was added to each well of the 96-well storage plate (reaction plate). Liquid in the first 3 columns was moved to another storage plate (quenched plate). The reaction plate was then sealed, incubated at 37 °C, and shaken at a speed of 60 rpm. Time points (0.5 h, 1 h, 2 h) were taken. At each time point, 450 µL pre-cooled internal standard was added to 3 rows in the reaction plate, and the liquid was then transferred to the quenched plate. […] 200 µL supernatant was transferred to a 96-well plate and analyzed by ultra-performance liquid chromatography-mass spectrometry (UPLC-MS) (Waters Inc.). The compounds and internal standard were detected by selected ion recording (SIR).

[5] = Liver microsomal stability, rat; conditions: microsomes, pH 7.4
Protocol: as §1

[6] = Liver microsomal stability, human; conditions: both, microsomes, pH 7.4
Protocol: as §1

[7] = system: L. mexicana intracellular amastigotes; assay: Growth inhibition of intracellular amastigotes in J774A.1 macrophages (Renilla luciferase luminescence); format: cell-based; conditions: Leishmania mexicana, J774.A1; intracellular amastigotes in J774A.1 macrophages; mean ± standard deviation, n = 2; read-out: L. mexicana EC50
Protocol: (§2) L. mexicana (MNYZ/BZ/62/M379) or L. donovani (LdBob strain) parasites expressing the Renilla luciferase gene from a rRNA gene locus were used to infect J774A.1 macrophages. Growth of intracellular amastigotes was measured using a luminescence assay, as detailed previously. The growth inhibitor activities of compounds were tested against bloodstream form Lister 427 T. brucei in 96-well plates containing 1 X 10^5 parasites per well in 0.2 ml HMI-11 medium (Gibco/Thermo Fisher). Compounds (2 μl volumes in DMSO) were added to the parasites using serial 3-fold dilutions to cover a range of concentrations from about 10 μM to 1 nM. After 48 h incubation at 37°C under a humidified 5% CO2 atmosphere, 10 μl of 10% Triton X-100 and 100 X stock SYBR Green I (Sigma-Aldrich) in PBS was added and florescence measured (excitation 497 nm; emission 520 nm) after 1 h incubation in the dark using a Spectra Max Gemini XPS fluorimeter (Molecular Devices). Data were log transformed and EC50 values were determined using GraphPad Prism 6 (GraphPad Software). In the absence of growth inhibiting compounds, the parasites grew from an initial density of 5 X 10^5 cells/mL to ~3 X 10^6 cells/mL.
[…]. These were chosen as candidates for further study. From these 230 compounds, we were able to repurchase 113 from commercial vendors. These compounds were characterized for purity by ultra-performance liquid chromatography using ultraviolet spectroscopy and evaporative light scattering detection and identity by mass spectrometry. All validated compounds were profiled for activity against intracellular amastigotes, the disease-causing stage of the life cycle. Intracellular amastigote activity was determined using a strain of L. mexicana in which the Renilla luciferase gene was integrated into the rRNA locus, allowing robust expression for measuring amastigote growth within cultured macrophages. All 113 compounds were applied at 1 μM concentration for 96 h to J774A.1 macrophages infected with L. mexicana luciferase-expressing parasites. […].
Next, we generated dose-response curves for these 55 compounds against intracellular amastigotes and independently against J774A.1 macrophages to establish the relative potency of each compound against the pathogen and its host cell. […]. The nine remaining compounds, each representing a unique chemical scaffold (compounds 1–9, Fig 3), were designated top hits (Fig 1).

[8] = system: L. donovani intracellular amastigotes; assay: as above; format: cell-based; conditions: Leishmania donovani, J774.A1; intracellular amastigotes in J774A.1 macrophages; mean ± standard deviation, n = 2; read-out: L. donovani EC50
Protocol: as §2

[9] = system: bloodstream form Lister 427 T. brucei; assay: Growth inhibition of T. brucei bloodstream forms (SYBR Green I); format: cell-based; conditions: bloodstream form, mean ± standard deviation, n = 2, read-out: T. brucei EC50
Protocol: as §2

[10] = system: J774A.1 macrophages; assay: Cytotoxicity to J774A.1 macrophages (dose-response); format: cell-based; conditions: Mus musculus, J774.A1; host macrophage; tested up to 10 μM; mean ± standard deviation, n = 2; read-out: J774A.1 EC50
Protocol: Cytotoxicity of compounds to J774.A1 macrophages was determined by dose-response curves as described previously. In the absence of growth inhibitors or DMSO, the macrophages increased in number ~6-fold over 96 h in Minimum Essential Medium, employed for both macrophage infections and the toxicity assays.

[11] = system: Trypanosoma cruzi CL Brener epimastigotes; assay: Growth inhibition of Trypanosoma cruzi epimastigotes (SYBR Green); format: cell-based; conditions: Trypanosoma cruzi; 72 h, 10 μM to 1 nM; read-out: T. cruzi epimastigotes EC50
Protocol: Trypanosoma cruzi CL Brener epimastigotes were obtained from Dr. Fred Buckner of the Department of Medicine at the University of Washington. T. cruzi epimastigotes were grown in liver infusion tryptose medium and seeded in a 96-well plate at 10^5 epimastigotes per well in 100 μl medium. For each well, 1 μl of compound in DMSO at 100X the desired final concentration was added. Epimastigotes were exposed to a range of compound concentrations from 10 μM to 1 nM to determine EC50. Plates were incubated at 26°C for 72 h, then 10 μl 50X SYBR Green in 1% Triton X-100 was added to each well followed by incubation with shaking at room temperature for 30 minutes. Fluorescence was read (excitation 485nm, emission 535nm) with the Victor^2 multiplate reader (PerkinElmer). All data processing and visualization were performed using GraphPad Prism 6 software.

[12] = system: L. mexicana; assay: Efficacy in murine model of cutaneous leishmaniasis (footpad lesion size); format: in vivo; conditions: BALB/c mice infected with L. mexicana; 20 mg/kg daily oral gavage for 10 days from week 4; measured weeks 4–12
Protocol: Female BALB/c mice (~20 g) were injected in one hind footpad with 1 x 10^6 stationary phase promastigotes suspended in 25 μl of phosphate buffered saline (PBS). Four weeks after infection, when a small cutaneous lesion was visible in the injected footpad, cohorts of five mice were treated with either compound or vehicle alone (90 μl), delivered daily for 10 consecutive days by oral gavage using a 20-gauge x 30 mm disposable plastic feeding needle. Vehicle consisted of 10/10/40/39 mixture of ethanol/(PG)/PEG400/PBS plus 1% (weight/volume) 2HβCD (PG is propylene glycol, PEG is polyethylene glycol, 2HβCD is 2-hydroxy-β-cyclodextran). The daily dose for each compound was: compound 4, 25 mg/kg; compound 5, 30 mg/kg; miltefosine, 20 mg/kg. The width of the footpad (top to bottom) was measured with calipers before injection of parasites (day 0) and weekly from weeks 4–12. The width of the uninfected contralateral footpad was also measured each week, and its width was subtracted from that of the infected footpad to determine lesion size.

[13] = Caco-2 permeability assay; format: in vitro ADME; conditions: human, pH 7.4; for Papp A→B at 2 h, 10 μmol/L / Papp B→A at 2 h, 10 μmol/L: mean ± standard deviation of three runs; for Papp A→B at 2 h, 10 μmol/L: read-out: Caco-2 (A→B) permeability coefficient; for Papp B→A at 2 h, 10 μmol/L: read-out: Caco-2 (B→A) permeability coefficient

| Compound | solubility at 18 h [1] [µM] | half-life at 99 µM ([3]; simulated gi fluid) [h] | half-life at 20 μM [4] [h] | half-life at 20 μM [5] [h] | half-life at 20 μM [6] [h] | EC50 [7] [nM] | EC50 [8] [nM] | EC50 [10] [nM] | EC50 [11] [nM] | Papp A→B at 2 h, 10 μmol/L ([13]; Caco-2) [×10⁻⁶ cm/s] | Papp B→A at 2 h, 10 μmol/L ([13]; Caco-2) [×10⁻⁶ cm/s] | also measured |
| --- | --- | --- | --- | --- | --- | --- | --- | --- | --- | --- | --- | --- |
| CCCSc1ccc2nc(NC(=O)OC)[nH]c2c1 [albendazole] | 3.8 (≈ 1.01 µg/mL) | > 24 | 0.7 | 1.62 | > 4 | – | – | – | – | – | – | Papp at 30 min, 0.05 µM [2]: 204 ×10⁻⁶ cm/s |
| Cc1ccc(-c2cc3c(c(OCC4CCCN(C)C4)c2)OCCN(C(=O)Cc2c(C)noc2C)C3)s1 (stereo not shown) [Compound 8] | – | – | – | – | – | 23 ± 18 | 1.1 ± 0.8 | 2200 ± 1400 | 330 | – | – | EC50 ([9]; Trypanosoma brucei): 300 ± 80 nM; EC50 [9]: < 300 nM |
| CCCCCCCCCCCCCCCCOP(=O)([O-])OCC[N+](C)(C)C [miltefosine, reference compound] | – | – | – | – | – | – | – | – | – | – | – | Cutaneous lesion size (footpad width) [12]: reduced lesion size from the initial dimension |
| Oc1c(C(Nc2ccccn2)c2cccc(Cl)c2Cl)ccc2cccnc12 (stereo not shown) [Compound 9] | – | – | – | – | – | 100 ± 10 | 15 ± 9 | 9000 ± 6000 | 2100 ± 70 | – | – | – |
| C[C@H]1O[C@@H](O[C@H]2[C@@H](O)C[C@H](O[C@H]3[C@@H](O)C[C@H](O[C@H]4CC[C@@]5(C)[C@H](CC[C@@H]6[C@@H]5C[C@@H](O)[C@]5(C)[C@@H](C7=CC(=O)OC7)CC[C@]65O)C4)O[C@@H]3C)O[C@@H]2C)C[C@H](O)[C@@H]1O [digoxin] | 80.3 (≈ 62.7 µg/mL) | > 24 | > 4 | > 4 | > 4 | – | – | – | – | 4.61 ± 0.46 | 27.1 ± 2.1 | efflux ratio at 2 h, 10 μmol/L ([13]; Caco-2, Papp B→A / Papp A→B): 5.87 |
| NC(=O)N1c2ccccc2C=Cc2ccccc21 [carbamazepine] | – | – | – | – | – | – | – | – | – | 71.8 ± 1.2 | 56.5 ± 3.2 | solubility at 18 h ([1]; citrate phosphate buffered saline): 82.2 µM (≈ 19.4 µg/mL); Papp at 30 min, 0.05 µM ([2]; PAMPA): 95.6 ×10⁻⁶ cm/s; efflux ratio at 2 h, 10 μmol/L ([13]; Caco-2, pH 7.4, Papp B→A / Papp A→B): 0.79; half-life at 99 µM ([3]; simulated gastric fluid with pepsin): > 24 h; half-life at 20 μM ([4]; mouse): > 4 h; half-life at 20 μM ([5]; rat): > 4 h; half-life at 20 μM ([6]; human): > 4 h |
